These results are taken from patent publication US8361998B2, “Compounds and their use as IKACh blockers” (AstraZeneca AB, priority 2010, dated 2013).

In the assay the target is T1, human cardiac ion channel proteins hKir3.1/Kir3.4 (Homo sapiens, UniProt P48544+P48549).
T1 construct: expressed in transfected cells
T1 sequence (P48549 1-501): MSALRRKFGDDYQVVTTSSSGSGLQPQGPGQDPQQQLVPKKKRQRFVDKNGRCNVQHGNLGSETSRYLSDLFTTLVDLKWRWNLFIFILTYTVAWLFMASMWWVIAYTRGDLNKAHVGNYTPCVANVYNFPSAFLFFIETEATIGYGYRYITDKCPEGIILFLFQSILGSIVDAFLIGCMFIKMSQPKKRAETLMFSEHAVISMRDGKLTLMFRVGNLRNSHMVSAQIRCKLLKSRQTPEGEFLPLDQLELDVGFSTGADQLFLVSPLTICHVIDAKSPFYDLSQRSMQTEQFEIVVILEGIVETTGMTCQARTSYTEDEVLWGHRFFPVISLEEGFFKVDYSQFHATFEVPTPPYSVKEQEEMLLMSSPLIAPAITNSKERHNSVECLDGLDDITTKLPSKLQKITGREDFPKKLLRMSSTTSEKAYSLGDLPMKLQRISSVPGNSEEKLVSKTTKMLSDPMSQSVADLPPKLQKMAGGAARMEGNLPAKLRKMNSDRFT
T1 sequence (P48544 1-419): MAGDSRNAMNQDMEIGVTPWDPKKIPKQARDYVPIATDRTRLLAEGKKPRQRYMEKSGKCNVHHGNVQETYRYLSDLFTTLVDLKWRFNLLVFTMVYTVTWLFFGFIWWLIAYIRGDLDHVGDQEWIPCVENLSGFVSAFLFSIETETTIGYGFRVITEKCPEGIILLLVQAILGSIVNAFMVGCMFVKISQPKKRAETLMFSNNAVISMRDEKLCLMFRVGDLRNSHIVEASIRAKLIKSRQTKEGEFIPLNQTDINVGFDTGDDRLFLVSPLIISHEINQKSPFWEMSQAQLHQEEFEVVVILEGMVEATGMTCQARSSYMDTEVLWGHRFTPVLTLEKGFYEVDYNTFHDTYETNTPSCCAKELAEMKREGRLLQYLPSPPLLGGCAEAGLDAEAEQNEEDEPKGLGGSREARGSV
The experiment in a line: Atomic Absorption Screening (AAS) Rb efflux assay of hKir3.1/Kir3.4 block, carbachol/high K+ stimulated, 10-pt or 7-pt CR. The note with it: printed as IC50 >67 μM in the 10-pt CR assay or IC50 >27 μM in the 7-pt CR assay; assay format per compound not stated; read-out: IC50. It counts as cell-based. An excerpt:
Human KCNJ3 encoding Kir3.1 (Genbank acc. No. NM_002239) was inserted between EcoRI and NotI in the pIRESneo3 vector (Clontech Laboratories, Inc. CA, USA). Human KCNJ5 encoding Kir3.4 (Genbank Acc. No. BC069482) was inserted between EcoR1 and Not1 in the pIRESpuro3 vector (Clontech Laboratories, Inc. CA, USA). A Kozak sequence (GCCACC) was introduced before the start codon ATG of both constructs. Chinese Hamster Ovary K1, CHO-FLP/IN, cells (Invitrogen Corporation, Paisley, UK) were transfected simultaneously using Lipofectamine 2000 reagent (Invitrogen Corporation, Paisley, UK). Geneticin 600 μg/mL (Invitrogen Corporation, Paisley, UK) and puromycin 3 μg/mL (BD Bioscience) were added to the cell culture medium 3 days after transfection. Two weeks after transfection, colonies had appeared and were manually picked and sorted to one cell per well in a 96-well plate. Cells were then tested for Kir3.1 and Kir3.4 expression using membrane potential assay, Western Blot and Immunocytochemistry. […] The cell line was re-sorted by flow cytometry and resulting clones were assayed electrophysiologically using IonWorks (Molecular Devices) and later validated on the Q-Patch (Sophion A/S).
The stable cell line was cultured in DMEM/F12 with Glutamax 1 (Invitrogen Corporation, Paisley, UK), supplemented with foetal bovine serum 10%, puromycin 3 μg/mL, hygromycin 300 μg/mL and geneticin 600 μg/mL (Invitrogen Corporation, Paisley, UK). Care was taken not to seed cells at too low density and cells were passaged at approximately 70-80% confluency. Cells used for patch-clamp experiments were prepared by washing using PBS (—Mg, —Ca^2+), 2 times, detached using Accutase (Sigma). For Q-Patch measurements, storage medium was prepared fresh by adding 1.25 mL of 1M Hepes (GibcoBRL) to 50 mL CHO-SFM II medium (GibcoBRL) and detached cells were diluted to 2 million cells/mL in this medium. Frozen (Cryopreserved) cells were used for Atomic Absorption Screening (AAS) and plated poly-D-lysine 384-well plates (Greiner) at a density of 11,000-13,000 cells/well, the day before assay.
The blocking effects of compounds on the human cardiac ion channel proteins hKir3.1/Kir3.4 were assessed in CHO-K1 cells stably expressing the channel proteins using Atomic Absorption Screening (AAS). Cells were washed and then loaded with 25 μL Rb-loading buffer for three hours at 37° C. After that, the cells were washed again and 25 μL of diluted compound was transferred to the cell plate, incubated for 5 min in RT, and then […] of Carbachol/high K+ (10 μM carbachol and 20 mM KCl final concentration) buffer added to stimulate the cells and open the Kir3.1/Kir3.4 channel. After 10 min stimulation, […] of the supernatant was transferred to a new microplate, 45 μL washing buffer added to the supernatant and the level of Rb in the supernatant was then measured using an Aurora ICR 8000. Compounds were studied at concentrations ranging from 0.003 to 67 μmol/L (dilutions by three, 10-pt CR) or from 0.037 to 27 μmol/L (dilutions by three, 7-pt CR).
Stock solutions of compounds were prepared in DMSO 10 mM and stored at RT. Buffers used for AAS contained (in mM): HEPES 20, NaCl 150, MgCl2 1.0, CaCl2 2.0 and NaH2PO4 0.8 and Glucose 10 (wash 1) or KCl 5 and Glucose 5 (wash 2) or KCl 5 (dilution buffer). The High K^+ channel opener buffer contained (in mM): HEPES 20, NaCl 130, MgCl2 1.0, CaCl2 2.0 and NaH2PO4 0.8 together with KCl 20. Solutions used for Q-Patch (extracellular) in mM: NaCl 145, KCl 4, CaCl2 2.0, MgCl2 1.0, HEPES 10 and glucose 10. The high K^+ extra cellular solution used for Q-Patch in mM: NaCl 96.7, KCl 50.7, CaCl2 2.0, MgCl2 1.0, HEPES 10 and glucose 10 while the intra cellular solution used was (in mM): KCl 120, CaCl2 5.374, MgCl2 1.75, EGTA 10, KOH 3.125, HEPES 10, Na2ATP 4.
Results are given as mean IC50 of >4 replicates (10-pt CR, AAS) or >3 replicates (7-pt CR, AAS). Some of the data in Table 1 are mean values of two or more runs. […]

Structures are written as SMILES.

In general, IC50 refers to the concentration at which inhibition is half-maximal. On to `CC(C)[C@@H](CN1CCCCC1)N(C)C(=O)c1cccc(C#N)c1` [3-Cyano-N-methyl-N-[(1S)-2-methyl-1-(piperidin-1-ylmethyl)propyl]benzamide], for which the IC50 is over 27 µM.

As to `C[C@@H](CN1CCCC1)N(C)C(=O)c1ccc(Br)cc1` [4-Bromo-N-methyl-N-[(1S)-1-methyl-2-pyrrolidin-1-ylethyl]benzamide], the IC50 was over 27 µM.

Turning to `CC(C)[C@@H](CCN1CCCC1)N(C)C(=O)c1ccc(Cl)cc1F` [4-Chloro-2-fluoro-N-methyl-N-[(1R)-2-methyl-1-(2-pyrrolidin-1-ylethyl)propyl]benzamide], the 50% inhibitory concentration (IC50) was over 27 µM.

For the compound `CC(C)[C@@H](CN1C[C@@H](O)[C@H](O)C1)N(C)C(=O)c1ccc(Cl)cc1` [4-Chloro-N-((S)-1-((3R,4R)-3,4-dihydroxypyrrolidin-1-yl)-3-methylbutan-2-yl)-N-methylbenzamide], the IC50 was over 27 µM.

With `CC(C)[C@@H](CN1C[C@@H](O)[C@H](O)C1)N(C)C(=O)c1ccc(C#N)cc1` [4-Cyano-N-((S)-1-((3R,4R)-3,4-dihydroxypyrrolidin-1-yl)-3-methylbutan-2-yl)-N-methylbenzamide], the IC50 was over 27 µM.

Regarding `CC(C)[C@@H](CN1C[C@H](O)[C@@H](O)C1)N(C)C(=O)c1ccc(C#N)cc1` [4-Cyano-N-((S)-1-((3S,4S)-3,4-dihydroxypyrrolidin-1-yl)-3-methylbutan-2-yl)-N-methylbenzamide], the 50% inhibitory concentration (IC50) is over 27 µM.

For the compound `Cc1cc(C(=O)N(C)C(C)(C)CN2CCCC2)ccc1F` [4-Fluoro-N,3-dimethyl-N-(2-methyl-1-(pyrrolidin-1-yl)propan-2-yl)benzamide], the IC50 is over 27 µM.

In the case of `CC(C)[C@@H](CN1CC(O)C1)N(C)C(=O)c1ccc(F)c(CO)c1` [4-Fluoro-N-[(1S)-1-[(3-hydroxyazetidin-1-yl)methyl]-2-methyl-propyl]-3-(hydroxymethyl)-N-methyl-benzamide], the IC50 was over 27 µM.

Take `CC(C)[C@@H](CN1CCCC1)N(C)C(=O)c1ccc(F)cc1` [4-Fluoro-N-methyl-N-[(1S)-2-methyl-1-(pyrrolidin-1-ylmethyl)propyl]benzamide]: the IC50 was over 27 µM.

Consider `CC(C)[C@H](CN1CCC1)N(C)C(=O)c1ccc(Br)cc1` [(R)-N-(1-(Azetidin-1-yl)-3-methylbutan-2-yl)-4-bromo-N-methylbenzamide], for which the IC50 was over 27 µM.

Turning to `CC(C)[C@@H](CN1CC(F)(CO)C1)N(C)C(=O)c1ccc(F)c(F)c1` [(S)-3,4-Difluoro-N-(1-(3-fluoro-3-(hydroxymethyl)azetidin-1-yl)-3-methylbutan-2-yl)-N-methylbenzamide], the IC50 is over 27 µM.

Regarding `CC(C)[C@@H](CN1CC(C)(O)C1)N(C)C(=O)c1ccc(F)c(F)c1` [(S)-3,4-Difluoro-N-(1-(3-hydroxy-3-methylazetidin-1-yl)-3-methylbutan-2-yl)-N-methylbenzamide], the IC50 was over 27 µM.

With `CC(C)[C@@H](CN1CCC(F)(F)C1)N(C)C(=O)c1ccc(Br)cc1` [(S)-4-Bromo-N-(1-(3,3-difluoropyrrolidin-1-yl)-3-methylbutan-2-yl)-N-methylbenzamide], the IC50 is over 27 µM.

As to `CC(C)[C@@H](CN1CCC(F)(F)C1)N(C)C(=O)c1ccc(Cl)cc1` [(S)-4-Chloro-N-(1-(3,3-difluoropyrrolidin-1-yl)-3-methylbutan-2-yl)-N-methylbenzamide], the IC50 was over 27 µM.

As to `CC(C)[C@@H](CN1CC(F)C1)N(C)C(=O)c1ccc(C#N)cc1F` [(S)-4-Cyano-2-fluoro-N-(1-(3-fluoroazetidin-1-yl)-3-methylbutan-2-yl)-N-methylbenzamide], the IC50 is over 27 µM.

With `CC(C)[C@@H](CN1CC(C)(O)C1)N(C)C(=O)c1ccc(F)cc1` [(S)-4-Fluoro-N-(1-(3-hydroxy-3-methylazetidin-1-yl)-3-methylbutan-2-yl)-N-methylbenzamide], the IC50 is over 27 µM.

As to `CC(C)[C@@H](CN1CCCC(F)(F)C1)N(C)C(=O)c1ccc(F)c(F)c1` [(S)-N-(1-(3,3-Difluoropiperidin-1-yl)-3-methylbutan-2-yl)-3,4-difluoro-N-methylbenzamide], the IC50 is over 27 µM.

As for `Cc1cc(C(=O)N(C)[C@H](CN2CCC(F)(F)C2)C(C)C)ccc1F` [(S)-N-(1-(3,3-Difluoropyrrolidin-1-yl)-3-methylbutan-2-yl)-4-fluoro-N,3-dimethylbenzamide], the IC50 is over 27 µM.

Turning to `COc1cccc(C(=O)N(C)[C@H](CN2CC(F)C2)C(C)C)c1` [(S)-N-(1-(3-Fluoroazetidin-1-yl)-3-methylbutan-2-yl)-3-methoxy-N-methylbenzamide], the IC50 is over 27 µM.

Consider `CC(C)[C@@H](CN1CC(C)(O)C1)N(C)C(=O)c1ccccc1` [(S)-N-(1-(3-Hydroxy-3-methylazetidin-1-yl)-3-methylbutan-2-yl)-N-methylbenzamide], for which the IC50 was over 27 µM.

Turning to `Cc1cc(C(=O)N(C)[C@H](CN2CCC(F)(F)CC2)C(C)C)ccc1F` [(S)-N-(1-(4,4-Difluoropiperidin-1-yl)-3-methylbutan-2-yl)-4-fluoro-N,3-dimethylbenzamide], the IC50 was over 27 µM.

In the case of `COc1ccc(C(=O)N(C)[C@H](CN2CCC2)C(C)C)cc1F` [(S)-N-(1-(Azetidin-1-yl)-3-methylbutan-2-yl)-3-fluoro-4-methoxy-N-methylbenzamide], the IC50 was over 27 µM.

As to `CC(C)[C@@H](CN1CCC1)N(C)C(=O)c1ccc(C#N)cc1` [(S)-N-(1-(Azetidin-1-yl)-3-methylbutan-2-yl)-4-cyano-N-methylbenzamide], the IC50 was over 27 µM.

Regarding `Cc1cc(F)ccc1C(=O)N(C)[C@H](CN1CCCC1)C(C)(C)C` [(S)-N-(3,3-Dimethyl-1-(pyrrolidin-1-yl)butan-2-yl)-4-fluoro-N,2-dimethylbenzamide], the IC50 is over 27 µM.
